Data from US9993570B2, “Radiolabeled tracers for poly (ADP-ribose) polymerase-1 (PARP-1), methods and uses therefor” (Washington University, priority 2014, dated 2018).

Tests used:
[1] = system: MDA-MB-231 tumors; experiment: microPET imaging with [18F]12, MDA-MB-231 tumors; format: in vivo, mice; conditions: baseline, 60 minute dynamic scan
Method: This example illustrates the visualization of tumor tissue in microPET in mice. MDA-MB-436 human breast cancer xenograft tumors in immune-deficient mice were visualized by PET using [^18F]12.
Tumor-bearing mice were placed in an induction chamber containing ˜2% isoflurane/oxygen and then secured to a custom double bed for placement of tail vein catheters; anesthesia was maintained via nose-cone at ˜1% isoflurane/oxygen for the dynamic imaging procedure. The mice were injected with 150-200 μCi of [^18F]12 and scanned for 0-60 min using Focus 220 and Inveon PET/CT scanners. The standard uptake values (SUVs) were generated from manually drawn regions of interests for tumors and surrounding ‘background’ tissue. Visualization of specific uptake was determined by comparison of baseline scans with images acquired by tracer injection 20 minutes after pre-treatment with the blocking agents olaparib (50 mg/kg, IP) or 12 (1 mg/kg, IP).
This example illustrates uptake of Compound 12 ([^18F]WC-4-138) in mice. Mature female athymic nude mice (Charles River Laboratories) were implanted with 10^6 SCC1 cells or 10^7 MDA-MB-231 cells into the mammary fat pads. Mice bearing SCC1 tumors were imaged at 5 weeks and mice bearing MDA-MB-231 cells were imaged at 2.5 weeks after implant. Mice were anesthetized with 2% isoflurane/oxygen and maintained at 1% isoflurane/oxygen via nose cone throughout the imaging procedure. Whole animal microCT images were acquired on an Inveon PET/CT scanner. The mice were injected via tail vein with 11.36±0.5 MBq (307±13 μCi) of [^18F]WC(4)-138 and underwent a 60 minute dynamic scan using Focus 220 or Inveon PET/CT scanners. The microPET and microCT images were coregistered using Integrated Research Workflow software (Siemens). Regions of interest were drawn over tumors to determine time activity curves. For drug treatment studies, animals reached intraperitoneal injections of 50 mg/kg olaparib or iniparib 30 minutes before imaging. Mice were imaged at baseline, or 30 minutes after IP injection of olaparib or iniparib. Arrows indicate location of tumors as identified on CT.
In FIG. 8, mice were imaged at baseline, or 30 minutes after IP injection of olaparib or iniparib. (A) The percent of injected dose per ml was calculated for each MDA/MB-231 tumor at baseline or after drug treatment. […] Tracer uptake was unchanged in iniparib-treated mice (p=0.1098 as determined by a paired t test, n=6 tumors).

[2] = system: Lung cell lines NCI-h69 and NCI-h82; experiment: [18F]WC-4-138 uptake in cell culture, small cell lung cancer lines; format: cell-based; conditions: NCI-h69 and NCI-h82, incubation 5, 30 or 60 minutes, normalized to protein
Method: In these experiments, the head and neck squamous cell carcinoma lines SCC1, SCC15, and SCC25 (ATCC) were propagated in Dulbecco's Modified Eagle's Medium (DMEM, Gibco) supplemented with 10% Fetal Bovine Serum (FBS, Gibco), Penicillin-Streptomycin (P/S, Gibco), and 100 ng/ml hydrocortisone (Sigma-Aldrich). The small cell lung cancer lines NCI-h69 and NCI-h82 (ATCC) were propagated m RPMI Medium (Gibco) supplemented with 10% FBS and 1% P/S. The human breast cancer cell line MDA-MB-231 (ATCC) was propagated in Eagle's Minimum Essential Medium (Gibco) supplemented with 5% FBS, 2% Vitamins for MEM (Gibco), 1% 200 mM L-glutamine (Gibco), 1% 10 mM Non-Essential Amino Acid (NEAA, Gibco).
For each experimental replicate, approximately 1 μCi of [^18F]WC-4-138 was diluted in 1 ml of cell culture medium and added to 10^6 cells. […] Radioactivity was measured in the collected medium, PBS, or cell pellets. Protein from the cell pellet was quantified using a […]. All data were decay-corrected and normalized to total protein quantity in the cell pellet. […]
The head and neck cell lines SCC1 and SCC25 constitutively take up small amounts of tracer, registering as 0.001-0.002 μCi/μg in the cell pellet (FIG. 5A). […] PARP activity was measured in HNSCC or lung SCLC cells. […]

Q: `O=C1NCCn2c(-c3ccc(OCC[18F])cc3)nc3cccc1c32` [[^18F]12] was tested. Which “tracer uptake in MDA-MB-231 tumors (microPET images)” value [1] did it give?
A: abundantly taken up in tumors

Q: What about the “tracer uptake in the cell pellet” value [2] of the same molecule?
A: 0.004-0.006 μCi/μg
